Laboratory results reported in PubChem BioAssay (NCI).
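96-well plates; 48 h exposure; 5 concentrations. Endpoints by linear interpolation between flanking doses. Not reached: highest tested concentration assigned. GI50 marks 50% less growth. TGI marks complete inhibition of growth.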

Columns and labels:
Assay in all cases: NCI-60 cell line screen, 48 h
NCI-H522 lung = system: NCI-H522 lung
OVCAR-4 ovarian = system: OVCAR-4 ovarian
EKVX NSCLC = system: EKVX NSCLC
NCI-H226 lung = system: NCI-H226 lung
CAKI-1 renal = system: CAKI-1 renal
MDA-MB-231 breast = system: MDA-MB-231 breast
A498 renal = system: A498 renal
COLO 205 colon = system: COLO 205 colon
PC-3 prostate = system: PC-3 prostate
RXF 393 renal = system: RXF 393 renal
UO-31 renal = system: UO-31 renal
SF-295 CNS = system: SF-295 CNS
NCI-H460 lung = system: NCI-H460 lung
T-47D breast = system: T-47D breast
HOP-62 NSCLC = system: HOP-62 NSCLC
NCI-H23 lung = system: NCI-H23 lung
HL-60(TB) leukemia = system: HL-60(TB) leukemia
786-0 renal = system: 786-0 renal
TK-10 renal = system: TK-10 renal
SW-620 colon = system: SW-620 colon
UACC-62 melanoma = system: UACC-62 melanoma
SK-MEL-2 melanoma = system: SK-MEL-2 melanoma
HT29 colon = system: HT29 colon
MCF7 breast = system: MCF7 breast
OVCAR-8 ovarian = system: OVCAR-8 ovarian
HS 578T breast = system: HS 578T breast
SNB-19 CNS = system: SNB-19 CNS
HCT-116 colon = system: HCT-116 colon
KM12 colon = system: KM12 colon
MDA-MB-435 = system: MDA-MB-435
SNB-75 CNS = system: SNB-75 CNS
M14 melanoma = system: M14 melanoma
MOLT-4 leukemia = system: MOLT-4 leukemia
DU-145 prostate = system: DU-145 prostate
SK-OV-3 ovarian = system: SK-OV-3 ovarian
LOX IMVI melanoma = system: LOX IMVI melanoma
K-562 leukemia = system: K-562 leukemia
IGROV1 ovarian = system: IGROV1 ovarian
OVCAR-5 ovarian = system: OVCAR-5 ovarian
HCC-2998 colon = system: HCC-2998 colon
SK-MEL-5 melanoma = system: SK-MEL-5 melanoma
SN12C renal = system: SN12C renal
A549 NSCLC = system: A549 NSCLC
HOP-92 NSCLC = system: HOP-92 NSCLC
OVCAR-3 ovarian = system: OVCAR-3 ovarian
RPMI-8226 leukemia = system: RPMI-8226 leukemia
SF-268 CNS = system: SF-268 CNS
BT-549 breast = system: BT-549 breast
MALME-3M melanoma = system: MALME-3M melanoma
ACHN renal = system: ACHN renal
SF-539 CNS = system: SF-539 CNS
CCRF-CEM leukemia = system: CCRF-CEM leukemia
UACC-257 melanoma = system: UACC-257 melanoma
NCI/ADR-RES ovarian = system: NCI/ADR-RES ovarian
U251 CNS = system: U251 CNS
SK-MEL-28 melanoma = system: SK-MEL-28 melanoma
HCT-15 colon = system: HCT-15 colon

With C=C1C(=O)c2sccc2C(c2ccc(OC)c(OC)c2)C1COC(C)=O (configuration not stated) the GI50 (NCI-H522 lung) was 1130 nM, the TGI (NCI-H522 lung) was 4040 nM and the GI50 (OVCAR-4 ovarian) was 4810 nM. It also gave a TGI (OVCAR-4 ovarian) of 19500 nM, a GI50 (EKVX NSCLC) of 8370 nM and a TGI (EKVX NSCLC) of 21300 nM. For the same compound, the GI50 (NCI-H226 lung) was 2930 nM, the TGI (NCI-H226 lung) was 8560 nM and the GI50 (CAKI-1 renal) was 2100 nM. It also gave a TGI (CAKI-1 renal) of 6570 nM, a GI50 (MDA-MB-231 breast) of 551 nM and a TGI (MDA-MB-231 breast) of 2480 nM. The GI50 (A498 renal) was 2130 nM, the TGI (A498 renal) was 7200 nM and the GI50 (COLO 205 colon) was 2250 nM. It also gave a TGI (COLO 205 colon) of 4890 nM, a GI50 (PC-3 prostate) of 1300 nM and a TGI (PC-3 prostate) of 2810 nM. It also gave a GI50 (RXF 393 renal) of 595 nM, a TGI (RXF 393 renal) of 1990 nM and a GI50 (UO-31 renal) of 1810 nM. The TGI (UO-31 renal) was 3390 nM, the GI50 (SF-295 CNS) was 4430 nM and the TGI (SF-295 CNS) was 16500 nM. It also gave a GI50 (NCI-H460 lung) of 3720 nM, a TGI (NCI-H460 lung) of 14000 nM and a GI50 (T-47D breast) of 2240 nM. For the same compound, the TGI (T-47D breast) was 5770 nM, the GI50 (HOP-62 NSCLC) was 6540 nM and the TGI (HOP-62 NSCLC) was 15700 nM. The GI50 (NCI-H23 lung) was 1540 nM, the TGI (NCI-H23 lung) was 4940 nM and the GI50 (HL-60(TB) leukemia) was 2980 nM. It also gave a TGI (HL-60(TB) leukemia) greater than 100000 nM, a GI50 (786-0 renal) of 297 nM and a TGI (786-0 renal) of 3990 nM. The GI50 (TK-10 renal) was 1340 nM, the TGI (TK-10 renal) was 4850 nM and the GI50 (SW-620 colon) was 656 nM. For the same compound, the TGI (SW-620 colon) was 2510 nM, the GI50 (UACC-62 melanoma) was 1430 nM and the TGI (UACC-62 melanoma) was 3170 nM. The GI50 (SK-MEL-2 melanoma) was 10800 nM, the TGI (SK-MEL-2 melanoma) was 23000 nM and the GI50 (HT29 colon) was 1360 nM. For the same compound, the TGI (HT29 colon) was 4010 nM, the GI50 (MCF7 breast) was 953 nM and the TGI (MCF7 breast) was 2980 nM. For the same compound, the GI50 (OVCAR-8 ovarian) was 2740 nM, the TGI (OVCAR-8 ovarian) was 8140 nM and the GI50 (HS 578T breast) was 2540 nM. For the same compound, the TGI (HS 578T breast) was 8400 nM, the GI50 (SNB-19 CNS) was 8470 nM and the TGI (SNB-19 CNS) was 32700 nM. The GI50 (HCT-116 colon) was 1620 nM, the TGI (HCT-116 colon) was 10300 nM and the GI50 (KM12 colon) was 1210 nM. It also gave a TGI (KM12 colon) greater than 25700 nM, a GI50 (MDA-MB-435) of 1920 nM and a TGI (MDA-MB-435) of 6180 nM. For the same compound, the GI50 (SNB-75 CNS) was 8390 nM, the TGI (SNB-75 CNS) was 28800 nM and the TGI (M14 melanoma) was 3100 nM. It also gave a GI50 (MOLT-4 leukemia) of 219 nM, a TGI (MOLT-4 leukemia) of 733 nM and a GI50 (DU-145 prostate) of 761 nM. It also gave a TGI (DU-145 prostate) of 2040 nM, a GI50 (SK-OV-3 ovarian) of 5460 nM and a TGI (SK-OV-3 ovarian) of 20000 nM. The GI50 (LOX IMVI melanoma) was 173 nM, the GI50 (K-562 leukemia) was 200 nM and the TGI (K-562 leukemia) was greater than 29700 nM. It also gave a GI50 (IGROV1 ovarian) of 2270 nM, a TGI (IGROV1 ovarian) of 5670 nM and a GI50 (OVCAR-5 ovarian) of 2420 nM. For the same compound, the TGI (OVCAR-5 ovarian) was 9290 nM, the GI50 (HCC-2998 colon) was 2890 nM and the TGI (HCC-2998 colon) was 7560 nM. For the same compound, the GI50 (SK-MEL-5 melanoma) was 1900 nM, the TGI (SK-MEL-5 melanoma) was 4740 nM and the GI50 (SN12C renal) was 1330 nM. For the same compound, the TGI (SN12C renal) was 3240 nM, the GI50 (A549 NSCLC) was 3250 nM and the TGI (A549 NSCLC) was 11500 nM. The GI50 (HOP-92 NSCLC) was 2460 nM, the TGI (HOP-92 NSCLC) was 6910 nM and the GI50 (OVCAR-3 ovarian) was 1670 nM. The TGI (OVCAR-3 ovarian) was 5790 nM, the TGI (RPMI-8226 leukemia) was 36.6 nM and the GI50 (SF-268 CNS) was 3440 nM. It also gave a TGI (SF-268 CNS) of 12900 nM, a GI50 (BT-549 breast) of 2110 nM and a TGI (BT-549 breast) of 4790 nM. It also gave a GI50 (MALME-3M melanoma) of 1500 nM, a TGI (MALME-3M melanoma) of 6410 nM and a GI50 (ACHN renal) of 1860 nM. It also gave a GI50 (SF-539 CNS) of 1610 nM, a TGI (SF-539 CNS) of 3270 nM and a GI50 (CCRF-CEM leukemia) of 66.1 nM. The TGI (CCRF-CEM leukemia) was 777 nM, the GI50 (UACC-257 melanoma) was 1930 nM and the TGI (UACC-257 melanoma) was 5770 nM. For the same compound, the GI50 (NCI/ADR-RES ovarian) was 2360 nM, the GI50 (U251 CNS) was 1620 nM and the GI50 (SK-MEL-28 melanoma) was 2150 nM. It also gave a TGI (SK-MEL-28 melanoma) of 4420 nM and a GI50 (HCT-15 colon) of 2030 nM.
